In patent publication US8828992B2, “Substituted azole derivatives, pharmaceutical composition containing the derivatives, and method for treating Parkinson's disease using the same” (priority 2009, dated 2014):
Like-named read-outs stand apart in the source and are kept apart here.

Tests used:
[1] = target: T1, Monoamineoxidase B type human-derived enzyme (Homo sapiens, UniProt P27338); assay: Inhibitory effects on the activity of MAO-B (Amplex Red fluorescence, benzylamine substrate); type: biochemical; conditions: for inhibition at 0.01 µM: read-out: Inhibitory effects (%) on the activity of MAO-B; for inhibition at 0.1 µM: treatment concentration 100 nM
T1 sequence (P27338 1-520): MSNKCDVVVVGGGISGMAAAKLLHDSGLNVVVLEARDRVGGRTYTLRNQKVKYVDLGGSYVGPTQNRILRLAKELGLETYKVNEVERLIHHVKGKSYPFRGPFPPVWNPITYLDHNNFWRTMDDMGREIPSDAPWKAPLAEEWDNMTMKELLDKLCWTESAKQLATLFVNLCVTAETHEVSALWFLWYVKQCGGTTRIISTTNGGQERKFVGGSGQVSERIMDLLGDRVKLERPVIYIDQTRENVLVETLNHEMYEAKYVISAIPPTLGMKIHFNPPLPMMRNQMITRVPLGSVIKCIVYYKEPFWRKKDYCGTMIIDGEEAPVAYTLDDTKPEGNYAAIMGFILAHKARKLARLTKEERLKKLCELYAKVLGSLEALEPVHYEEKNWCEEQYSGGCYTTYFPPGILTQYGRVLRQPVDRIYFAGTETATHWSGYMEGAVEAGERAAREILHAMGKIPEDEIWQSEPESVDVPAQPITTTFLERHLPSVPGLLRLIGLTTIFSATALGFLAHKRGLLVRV
Protocol: Monoamineoxidase A or B type human-derived enzyme (5 mg/ml) was each diluted with 0.05 M sodium phosphate buffer (pH 7.4) to yield a dilution of 1:200, and then 100 μl of an enzyme buffer containing 2 μl of a compound 1 solution at the corresponding concentration was placed in a test plate (flat-bottom) and incubated for 30 minutes.
100 μl of a working buffer containing 400 μM of Amplex Red reagent, 2 U/ml horseradish peroxidase, and 2 mM substrate (tyramine for MAO-A and benzylamine for MAO-B) in 0.05 M sodium phosphate buffer (pH 7.4) was mixed with a pre-incubated enzyme buffer at 1:1 and measured using fluorescence (EX: 563 nm & EM: 587 nm) for 30 minutes.

[2] = test system: dopamine (DA) in the striatum of a MPTP-treated mouse; assay: Combined administration with Levodopa group: dopamine in the striatum of MPTP-treated mouse (HPLC); type: in vivo; conditions: compound 1 mg/kg PO co-administered with Levodopa group (Levodopa 50 mg/kg + Benzerazide 25 mg/kg IP); for Concentration of dopamine compared to a control group %, 1 hr: 1 hr after Levodopa; for Concentration of dopamine compared to a control group %, 3 hr: 3 hr after Levodopa
Protocol: MPTP (20 mg/kg, free base; Sigma, St. louis, Mo.) was administered to an 8 week old (20-25 g) male C57BL/6 test mouse intraperitoneally at the interval of 2 hours to construct a model.
In order to observe the effects of combined administration of a compound of the present invention and Levodopa, the compound of the present invention was dissolved in a solution containing 0.02 ml of dimethylsulfoxide (DMSO), 0.02 ml of Cremophor, 0.08 ml of polyethyleneglycol (PEG), and 0.08 ml of physiological saline. The resulting solution was orally administered at doses of 1 mg/kg one week after the MPTP treatment, and a Levodopa group containing Levodopa at 50 mg/kg and Benzerazide at 25 mg/kg was intraperitoneally administered 1 hour later.
A single administration of the Levodopa group in the following Table 4 indicates values resulting from a MPTP (toxin) treatment followed by an administration of the Levodopa group compared to the treatment results of a Levodopa single administration group of Levodopa and Benzerazide.
At 1 hour and 3 hours after administration of Levodopa, the animals were sacrificed by cervical vertebra dislocation and the brain tissues were immediately isolated from the animals. 0.5 me of iced solution for HPLC analysis (0.1 M perchloric acid and 0.1 mM EDTA) was added to a striatum obtained from the isolated brain tissues, and an ultrasonic grinder was used to prepare a tissue homogenate. The tissue homogenate was centrifuged at 12,000 rpm for 15 minutes, and its supernatant was filtered through nitrocellulose membrane filter (0.2 um, Millipore). For HPLC analysis, uBondapak™ C18 column (4.6×150 mm, particle size 10 μm: Shisheido, Japan) was used, the flow rate of the mobile phase (0.07 M monobasic sodium phosphate, 1 mM sodium octasulfonic acid, 0.1 uM EDTA, 5% acetonitrile, pH 3.2) was maintained at 0.5 me/min, and the electrode potential of the electrochemical detector (CouloChem III, ESA, Japan) was set at 350 mV.

Question: Which results are given for `NC(=O)OCc1nc(-c2ccc(OCc3ccccc3)cc2)no1` [Example 2, carbamic acid 3-(4-benzyloxy-phenyl)-[1,2,4]oxadiazol-5-ylmethyl ester]?
Answer: inhibition at 0.01 µM [1]: 95%; Concentration of dopamine compared to a control group %, 1 hr [2]: 106.12%; Concentration of dopamine compared to a control group %, 3 hr [2]: 43.6%

Question: With `O=C(OCc1cc(-c2ccc(OCc3ccccc3)cc2)no1)n1ccnc1` [Example 120, Imidazole-1-carboxylic acid 3-(4-benzyloxy-phenyl)-isoxazol-5-ylmethyl ester] as the compound, how does the inhibition at 0.01 µM ([1]; treatment concentration 10 nM) read?
Answer: Its inhibition at 0.01 µM is 87.8%.

Question: What about the “Concentration of dopamine compared to a control group %, 1 hr” value (from here on “Concentration … to a control group %, 1 hr”) [2] of the same compound?
Answer: Its value is 148.5%.

Question: What about the “Concentration of dopamine compared to a control group %, 3 hr” value (“Concentration … to a control group %, 3 hr” for short) [2] of the same compound?
Answer: Its value is 53.9%.

Question: How did the inhibition at 0.01 µM ([1]; treatment concentration 10 nM) turn out when `O=C(OCc1cc(-c2ccc(OCc3ccccc3)cc2)no1)N1CCOCC1` [Example 127, morpholine-4-carboxylic acid 3-(4-benzyloxy-phenyl)-isoxazol-5-ylmethyl ester] was run?
Answer: The inhibition at 0.01 µM was 45.3%.

Question: And the “Concentration … to a control group %, 1 hr” value [2]?
Answer: The value was 140.7%.

Question: What about the “Concentration … to a control group %, 3 hr” value [2] of the same compound?
Answer: Its value is 60.4%.

Question: `NCCCNC(=O)OCc1cc(-c2ccc(OCc3ccccc3)cc2)no1` [Example 130, (3-amino-propyl)-carbamic acid 3-(4-benzyloxy-phenyl)-isoxazol-5-ylmethyl ester] was tested. Which inhibition at 0.01 µM ([1]; treatment concentration 10 nM) did it give?
Answer: Its inhibition at 0.01 µM is 52.9%.

Question: And the “Concentration … to a control group %, 1 hr” value [2]?
Answer: The value was 131.9%.

Question: What about the “Concentration … to a control group %, 3 hr” value [2] of the same compound?
Answer: The value was 77.0%.

Question: What does the source list for `NC(=O)NCc1cc(-c2ccc(OCc3ccccc3)cc2)no1` [Example 152, [3-(4-benzyloxy-phenyl)-isoxazol-5-ylmethyl]-urea]?
Answer: inhibition at 0.01 µM ([1]; treatment concentration 10 nM): 96.1%; Concentration of dopamine compared to a control group %, 1 hr [2]: 87.0%; Concentration of dopamine compared to a control group %, 3 hr [2]: 77.0%

Question: How did the inhibition at 0.01 µM ([1]; treatment concentration 10 nM) turn out when `NC(=O)CNCc1cc(-c2ccc(OCc3ccccc3)cc2)no1` [Example 162, 2-{[3-(4-benzyloxy-phenyl)-isoxazol-5-ylmethyl]-amino}-acetamide] was run?
Answer: The inhibition at 0.01 µM was 66.1%.

Question: What about the “Concentration … to a control group %, 1 hr” value [2] of the same compound?
Answer: Its value is 148.3%.

Question: And the “Concentration … to a control group %, 3 hr” value [2]?
Answer: Its value is 100.1%.

Question: Which inhibition at 0.01 µM ([1]; treatment concentration 10 nM) does the source give for `OCCNCc1cc(-c2ccc(OCc3ccccc3)cc2)no1` [Example 168, 2-{[3-(4-benzyloxy-phenyl)-isoxazol-5-ylmethyl]-amino}-ethanol] here?
Answer: The inhibition at 0.01 µM was 44.7%.

Question: For `COCCNCc1cc(-c2ccc(OCc3ccccc3)cc2)no1` [Example 174, [3-(4-benzyloxy-phenyl)-isoxazol-5-ylmethyl]-(2-methoxy-ethyl)-amine], which inhibition at 0.01 µM ([1]; treatment concentration 10 nM) is on record?
Answer: The inhibition at 0.01 µM was 52.7%.

Question: `C=CCNCc1cc(-c2ccc(OCc3ccccc3)cc2)no1` [Example 176, Allyl-[3-(4-benzyloxy-phenyl)-isoxazol-5-ylmethyl]-amine] was tested. Which inhibition at 0.01 µM ([1]; treatment concentration 10 nM) did it give?
Answer: Its inhibition at 0.01 µM is 71.5%.

Question: `NC(=O)OCCNCc1cc(-c2ccc(OCc3ccccc3)cc2)no1` [Example 177, Carbamic acid 2-{[3-(4-benzyloxy-phenyl)-isoxazol-5-ylmethyl]-amino}-ethyl ester] was tested. Which inhibition at 0.01 µM ([1]; treatment concentration 10 nM) did it give?
Answer: The inhibition at 0.01 µM was 31.7%.

Question: How did the inhibition at 0.01 µM ([1]; treatment concentration 10 nM) turn out when `C#CCN(C)Cc1cc(-c2ccc(OCc3ccccc3)cc2)no1` [Example 178, [3-(4-benzyloxy-phenyl)-isoxazol-5-ylmethyl]-methyl-prop-2-ynyl-amine] was run?
Answer: Its inhibition at 0.01 µM is 64%.

Question: Which inhibition at 0.01 µM ([1]; treatment concentration 10 nM) does the source give for `CC(C)c1nccn1Cc1cc(-c2ccc(OCc3ccccc3)cc2)no1` [Example 179, 3-(4-benzyloxy-phenyl)-5-(2-isopropyl-imidazol-1-ylmethyl)-isoxazole] here?
Answer: The inhibition at 0.01 µM was 26.7%.

Question: `CCc1nc(C)cn1Cc1cc(-c2ccc(OCc3ccccc3)cc2)no1` [Example 186, 3-(4-benzyloxy-phenyl)-5-(2-ethyl-4-methyl-imidazol-1-ylmethyl)-isoxazole] was tested. Which inhibition at 0.01 µM ([1]; treatment concentration 10 nM) did it give?
Answer: The inhibition at 0.01 µM was 51.2%.

Question: For `NC(=O)OCc1cc(-c2ccc(OCC3CCCC3)cc2)no1` [Example 193, Carbamic acid 3-(4-cyclopentylmethoxy-phenyl)-isoxazol-5-ylmethyl ester], which inhibition at 0.01 µM [1] is on record?
Answer: Its inhibition at 0.01 µM is 88.1%.

Question: Which inhibition at 0.1 µM [1] does the source give for `NC(=O)OCc1cc(-c2ccc(OCc3ccc(F)cc3F)cc2)no1` [Example 196, carbamic acid 3-[4-(2,4-difluoro-benzyloxy)-phenyl]-isoxazol-5-ylmethyl ester] here?
Answer: Its inhibition at 0.1 µM is 97.1%.

Question: For `NC(=O)OCc1cc(-c2ccc(OCc3cc(F)ccc3F)cc2)no1` [Example 197, carbamic acid 3-[4-(2,5-difluoro-benzyloxy)-phenyl]-isoxazol-5-ylmethyl ester], which inhibition at 0.1 µM [1] is on record?
Answer: Its inhibition at 0.1 µM is 96.7%.

Question: For `NC(=O)OCc1cc(-c2ccc(OCc3ccc(Cl)cc3Cl)cc2)no1` [Example 198, carbamic acid 3-[4-(2,4-dichlorobenzyloxy)-phenyl]-isoxazol-5-ylmethyl ester], which inhibition at 0.1 µM [1] is on record?
Answer: Its inhibition at 0.1 µM is 95.7%.

Question: For `NC(=O)OCc1cc(-c2ccc(OCc3c(F)cccc3Cl)cc2)no1` [Example 199, Carbamic acid 3-[4-(2-chloro-6-fluorobenzyloxy)-phenyl]-isoxazol-5-ylmethyl ester], which inhibition at 0.01 µM ([1]; treatment concentration 10 nM) is on record?
Answer: The inhibition at 0.01 µM was 83.2%.

Question: How did the inhibition at 0.01 µM ([1]; treatment concentration 10 nM) turn out when `Cc1cccc(COc2ccc(-c3cc(COC(N)=O)on3)cc2)c1` [Example 200, carbamic acid 3-[4-(3-methyl-benzyloxy)-phenyl]-isoxazol-5-ylmethyl ester] was run?
Answer: Its inhibition at 0.01 µM is 87.6%.

Question: How did the inhibition at 0.01 µM ([1]; treatment concentration 10 nM) turn out when `NC(=O)OCc1cc(-c2ccc(OCc3ccccc3C(F)(F)F)cc2)no1` [Example 201, carbamic acid 3-[4-(2-trifluoromethyl-benzyloxy)-phenyl]-isoxazol-5-ylmethyl ester] was run?
Answer: Its inhibition at 0.01 µM is 72.4%.

Question: For `NC(=O)OCc1cc(-c2ccc(OCc3ccc(C(F)(F)F)cc3)cc2)no1` [Example 202, carbamic acid 3-[4-(4-trifluoromethyl-benzyloxy)-phenyl]-isoxazol-5-ylmethyl ester], which inhibition at 0.1 µM [1] is on record?
Answer: The inhibition at 0.1 µM was 95.5%.

Question: How did the inhibition at 0.01 µM ([1]; treatment concentration 10 nM) turn out when `NC(=O)OCc1cc(-c2ccc(OCc3ccc4c(c3)OCO4)cc2)no1` [Example 203, carbamic acid 3-[4-(benzo[1,3]dioxol-5-ylmethoxy)-phenyl]-isoxazol-5-ylmethyl ester] was run?
Answer: The inhibition at 0.01 µM was 93%.

Question: For `CC(C)(C)[N+]([O-])=Cc1cccc(COc2ccc(-c3cc(COC(N)=O)on3)cc2)c1` [Example 204, carbamic acid 3-{4-[3-(t-butylnitronyl)-benzyloxy]-phenyl}-isoxazol-5-ylmethyl ester], which “Inhibitory effects (%) on the activity of MAO-B” value ([1]; treatment concentration 10 nM) is on record?
Answer: Its value is 98.8%.
